Data: US20120202856A1, “SUBSTITUTED BENZIMDAZOLE DERIVATIVES USEFUL AS TRPM8 RECEPTOR MODULATORS” (priority 2011, published 2012)
Where a name gives a salt, the structure may show the parent alone.

Biological target: T1, canine TRPM8 (Canis lupus familiaris, UniProt Q1A7N1)
T1 construct: expressed in transfected cells
Assay: In Vitro Canine TRPM8 Functional Assay (intracellular Ca2+ fluorescence, icilin activation, HEK293 cells)
Format: cell-based
Conditions: for inhibition at 0.2 µM: HEK293, 0.2 μM test compound, individually measured values, read-out: % Inh (%) @0.2 μM, in vitro TRP M8 Activity; for IC50: HEK293 cells expressing canine TRPM8, icilin activation, individually measured values (batches/salt forms), read-out: IC50 (nM), in vitro TRP M8 Activity
Outline: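 HEK293 cells expressing canine TRPM8 loaded with Calcium 3 dye, then stimulated with icilin; intracellular Ca2+ rise read on FLIPR or FDSS. Peak fluorescence minus basal normalized to percent maximal response; IC50 from sigmoidal nonlinear regression of quadruplicate wells.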

T1 sequence (Q1A7N1 1-1104): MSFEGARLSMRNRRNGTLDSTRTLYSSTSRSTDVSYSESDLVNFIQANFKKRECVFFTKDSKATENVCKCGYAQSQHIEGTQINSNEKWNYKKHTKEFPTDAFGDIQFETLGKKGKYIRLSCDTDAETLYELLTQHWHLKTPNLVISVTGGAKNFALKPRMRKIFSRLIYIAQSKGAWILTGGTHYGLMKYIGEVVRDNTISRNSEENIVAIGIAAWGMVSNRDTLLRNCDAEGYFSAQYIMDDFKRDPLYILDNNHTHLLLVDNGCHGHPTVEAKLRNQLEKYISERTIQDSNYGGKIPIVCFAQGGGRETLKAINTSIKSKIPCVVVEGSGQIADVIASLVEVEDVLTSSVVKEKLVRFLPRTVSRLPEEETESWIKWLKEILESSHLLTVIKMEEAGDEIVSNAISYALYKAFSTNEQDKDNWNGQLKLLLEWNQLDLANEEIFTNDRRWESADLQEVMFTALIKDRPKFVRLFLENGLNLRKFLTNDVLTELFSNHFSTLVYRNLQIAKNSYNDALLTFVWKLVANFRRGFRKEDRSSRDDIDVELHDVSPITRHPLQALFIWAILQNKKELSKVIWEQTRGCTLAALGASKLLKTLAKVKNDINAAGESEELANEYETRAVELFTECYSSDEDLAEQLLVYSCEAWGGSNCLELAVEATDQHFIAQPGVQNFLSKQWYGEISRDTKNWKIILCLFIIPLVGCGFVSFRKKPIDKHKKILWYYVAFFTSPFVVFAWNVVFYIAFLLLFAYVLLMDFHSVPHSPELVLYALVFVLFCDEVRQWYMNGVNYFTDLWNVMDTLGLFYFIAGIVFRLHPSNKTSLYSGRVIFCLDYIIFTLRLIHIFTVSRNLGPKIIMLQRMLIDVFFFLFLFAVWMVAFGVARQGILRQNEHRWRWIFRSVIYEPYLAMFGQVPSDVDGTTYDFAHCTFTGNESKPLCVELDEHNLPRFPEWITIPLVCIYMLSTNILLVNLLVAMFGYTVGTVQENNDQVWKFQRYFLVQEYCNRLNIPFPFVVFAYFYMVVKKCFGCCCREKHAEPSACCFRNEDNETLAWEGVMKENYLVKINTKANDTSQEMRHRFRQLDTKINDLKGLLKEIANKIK

| Compound | inhibition at 0.2 µM [%] | IC50 [nM] |
| --- | --- | --- |
| Cc1oc(C(C)(C)C)nc1-c1nc2cc(-c3ccccc3)cc(C(F)(F)F)c2[nH]1 [Compound 157, 2-(2-tert-Butyl-5-methyl-oxazol-4-yl)-5-phenyl-7-trifluoromethyl-1H-benzimidazole hydrochloride] | 41 |  |
| Cc1oc(C(C)(C)C)nc1-c1nc2cc(-c3c(F)cccc3C(F)(F)F)cc(C(F)(F)F)c2[nH]1 [Compound 158, 2-(2-tert-Butyl-5-methyl-oxazol-4-yl)-5-(2-fluoro-6-trifluoromethyl-phenyl)-7-trifluoromethyl-1H-benzimidazole hydrochloride] | 72 |  |
| Cc1oc(C(C)(C)C)nc1-c1nc2cc(-c3ccccc3OC(F)(F)F)cc(Cl)c2[nH]1 [Compound 159, 2-(2-tert-Butyl-5-methyl-oxazol-4-yl)-7-chloro-5-(2-trifluoromethoxy-phenyl)-1H-benzimidazole hydrochloride] | 19 |  |
| Cc1oc(C(C)(C)C)nc1-c1nc2cc(-c3ccccc3F)cc(Cl)c2[nH]1 [Compound 161, 2-(2-tert-Butyl-5-methyl-oxazol-4-yl)-7-chloro-5-(2-fluoro-phenyl)-1H-benzimidazole hydrochloride] | 36 |  |
| Cc1oc(C(C)(C)C)nc1-c1nc2cc(-c3ccccc3Cl)cc(Cl)c2[nH]1 [Compound 163, 2-(2-tert-Butyl-5-methyl-oxazol-4-yl)-7-chloro-5-(2-chloro-phenyl)-1H-benzimidazole hydrochloride] | 62 |  |
| Cc1oc(C(C)(C)C)nc1-c1nc2cc(-c3ccccc3C(F)(F)F)cc(Cl)c2[nH]1 [Compound 165, 2-(2-tert-Butyl-5-methyl-oxazol-4-yl)-7-chloro-5-(2-trifluoromethyl-phenyl)-1H-benzimidazole hydrochloride] | 27 |  |
| Cn1nc(C(C)(C)C)c(C#N)c1-c1nc2cc(-c3ccccc3F)cc(Cl)c2[nH]1 [Compound 167, 3-tert-Butyl-5-[7-chloro-5-(2-fluoro-phenyl)-1H-benzimidazol-2-yl]-1-methyl-1H-pyrazole-4-carbonitrile sodium salt] | 100 | 9.8 |
| Cn1nc(C(C)(C)C)c(C#N)c1-c1nc2cc(-c3c(F)cccc3F)cc(Cl)c2[nH]1 [Compound 171, 3-tert-Butyl-5-[7-chloro-5-(2,6-difluoro-phenyl)-1H-benzimidazol-2-yl]-1-methyl-1H-pyrazole-4-carbonitrile sodium salt] | 100 | 8.2 |
| Cn1nc(C(C)(C)C)c(C#N)c1-c1nc2cc(-c3c(F)cccc3C(F)(F)F)cc(Cl)c2[nH]1 [Compound 172, 3-tert-Butyl-5-[7-chloro-5-(2-fluoro-6-trifluoromethyl-phenyl)-1H-benzimidazol-2-yl]-1-methyl-1H-pyrazole-4-carbonitrile sodium salt] | 100 | 8.7 |
| Cn1nc(C(C)(C)C)c(C#N)c1-c1nc2cc(-c3c(F)cccc3OC(F)(F)F)cc(Cl)c2[nH]1 [Compound 173, 3-tert-Butyl-5-[7-chloro-5-(2-fluoro-6-trifluoromethoxy-phenyl)-1H-benzimidazol-2-yl]-1-methyl-1H-pyrazole-4-carbonitrile sodium salt] | 100 | 10.7 |
| Cc1oc(C(C)(C)C)cc1-c1nc2cc(-c3ccccc3F)ccc2[nH]1 [Compound 174, 2-(5-tert-Butyl-2-methyl-furan-3-yl)-5-(2-fluoro-phenyl)-1H-benzimidazole sodium salt] | 83 | 33.4 |
| Cc1nc(C(C)(C)C)oc1-c1nc2cc(-c3ccccc3F)cc(C(F)(F)F)c2[nH]1 [Compound 175, 2-(2-tert-Butyl-4-methyl-oxazol-5-yl)-5-(2-fluoro-phenyl)-7-trifluoromethyl-1H-benzimidazole hydrochloride] | 48 |  |
| Cc1nc(C(C)(C)C)oc1-c1nc2cc(-c3ccccc3OC(F)(F)F)cc(C(F)(F)F)c2[nH]1 [Compound 176, 2-(2-tert-Butyl-4-methyl-oxazol-5-yl)-5-(2-trifluoromethoxy-phenyl)-7-trifluoromethyl-1H-benzimidazole hydrochloride] | 60 |  |
| Cc1nc(C(C)(C)C)oc1-c1nc2cc(-c3ccccc3C(F)(F)F)cc(C(F)(F)F)c2[nH]1 [Compound 177, 2-(2-tert-Butyl-4-methyl-oxazol-5-yl)-7-trifluoromethyl-5-(2-trifluoromethyl-phenyl)-1H-benzimidazole hydrochloride] | 11 |  |
| Cc1nc(C(C)(C)C)oc1-c1nc2cc(-c3ccccc3)cc(C(F)(F)F)c2[nH]1 [Compound 178, 2-(2-tert-Butyl-4-methyl-oxazol-5-yl)-5-phenyl-7-trifluoromethyl-1H-benzimidazole hydrochloride] | 17 |  |
| Cc1nc(C(C)(C)C)oc1-c1nc2cc(-c3ccccc3Cl)cc(C(F)(F)F)c2[nH]1 [Compound 179, 2-(2-tert-Butyl-4-methyl-oxazol-5-yl)-5-(2-chloro-phenyl)-7-trifluoromethyl-1H-benzimidazole hydrochloride] | 18 |  |
| Cc1nc(C(C)(C)C)oc1-c1nc2cc(-c3ccccc3)cc(Cl)c2[nH]1 [Compound 180, 2-(2-tert-Butyl-4-methyl-oxazol-5-yl)-7-chloro-5-phenyl-1H-benzimidazole hydrochloride] | 6 |  |

Now from value to compound:

| inhibition at 0.2 µM [%] | IC50 [nM] | Compound |
| --- | --- | --- |
| 15 |  | Cc1nc(C(C)(C)C)oc1-c1nc2cc(-c3ccccc3Cl)cc(Cl)c2[nH]1 [Compound 181, 2-(2-tert-Butyl-4-methyl-oxazol-5-yl)-7-chloro-5-(2-chloro-phenyl)-1H-benzimidazole hydrochloride] |
| 26 |  | Cc1nc(C(C)(C)C)oc1-c1nc2cc(-c3ccccc3F)cc(Cl)c2[nH]1 [Compound 182, 2-(2-tert-Butyl-4-methyl-oxazol-5-yl)-7-chloro-5-(2-fluoro-phenyl)-1H-benzimidazole hydrochloride] |
| 4 |  | Cc1nc(C(C)(C)C)oc1-c1nc2cc(-c3ccccc3OC(F)(F)F)cc(Cl)c2[nH]1 [Compound 183, 2-(2-tert-Butyl-4-methyl-oxazol-5-yl)-7-chloro-5-(2-trifluoromethoxy-phenyl)-1H-benzimidazole hydrochloride] |
| 101 | 6.4 | Cc1oc(C(C)(C)C)c(C#N)c1-c1nc2cc(-c3ccccc3C(F)(F)F)cc(C(F)(F)F)c2[nH]1 [Compound 184, 2-tert-Butyl-5-methyl-4-[7-trifluoromethyl-5-(2-trifluoromethyl-phenyl)-1H-benzimidazol-2-yl]-furan-3-carbonitrile sodium salt] |
| 99 | 13.8 | Cn1nc(C(C)(C)C)c(C(F)(F)F)c1-c1nc2cc(-c3ccccc3F)cc(C(F)(F)F)c2[nH]1 [Compound 185, 2-(5-tert-Butyl-2-methyl-4-trifluoromethyl-2H-pyrazol-3-yl)-5-(2-fluoro-phenyl)-7-trifluoromethyl-1H-benzimidazole sodium salt] |
| 99 | 20 | Cn1nc(C(C)(C)C)c(C(F)(F)F)c1-c1nc2cc(-c3ccccc3Cl)cc(C(F)(F)F)c2[nH]1 [Compound 186, 2-(5-tert-Butyl-2-methyl-4-trifluoromethyl-2H-pyrazol-3-yl)-5-(2-chloro-phenyl)-7-trifluoromethyl-1H-benzimidazole sodium salt] |
| 100 | 14.7 | Cn1nc(C(C)(C)C)c(C(F)(F)F)c1-c1nc2cc(-c3ccccc3C(F)(F)F)cc(C(F)(F)F)c2[nH]1 [Compound 187, 2-(5-tert-Butyl-2-methyl-4-trifluoromethyl-2H-pyrazol-3-yl)-7-trifluoromethyl-5-(2-trifluoromethyl-phenyl)-1H-benzimidazole sodium salt] |
| 99 | 35 | Cn1nc(C(C)(C)C)c(C(F)(F)F)c1-c1nc2cc(-c3ccccc3OC(F)(F)F)cc(C(F)(F)F)c2[nH]1 [Compound 188, 2-(5-tert-Butyl-2-methyl-4-trifluoromethyl-2H-pyrazol-3-yl)-5-(2-trifluoromethoxy-phenyl)-7-trifluoromethyl-1H-benzimidazole sodium salt] |
| 99 | 10.6 | Cn1nc2c(c1-c1nc3cc(-c4ccccc4C(F)(F)F)cc(C(F)(F)F)c3[nH]1)CCC21CCCCC1 [Compound 189] |
|  | 30 | CC(C)(C)c1nnc(-c2nc3cc(-c4ccccc4C(F)(F)F)cc(C(F)(F)F)c3[nH]2)o1 [Compound 190, 2-(5-tert-Butyl-[1,3,4]oxadiazol-2-yl)-7-trifluoromethyl-5-(2-trifluoromethyl-phenyl)-1H-benzimidazole sodium salt] |
|  | 7.5 | Cn1nc(C(C)(C)C)nc1-c1nc2cc(-c3ccccc3C(F)(F)F)cc(C(F)(F)F)c2[nH]1 [Compound 192, 2-(5-tert-Butyl-2-methyl-2H-[1,2,4]triazol-3-yl)-7-trifluoromethyl-5-(2-trifluoromethyl-phenyl)-1H-benzimidazole sodium salt] |
| 18 |  | Cc1oc(-c2nc3cc(-c4ccccc4F)cc(C(F)(F)F)c3[nH]2)nc1C(C)(C)C [Compound 193, 2-(4-tert-Butyl-5-methyl-oxazol-2-yl)-5-(2-fluoro-phenyl)-7-trifluoromethyl-1H-benzimidazole hydrochloride] |
| 63 |  | Cc1oc(-c2nc3cc(-c4ccccc4C(F)(F)F)cc(C(F)(F)F)c3[nH]2)nc1C(C)(C)C [Compound 194, 2-(4-tert-Butyl-5-methyl-oxazol-2-yl)-7-trifluoromethyl-5-(2-trifluoromethyl-phenyl)-1H-benzimidazole hydrochloride] |
| 46 |  | Cc1oc(-c2nc3cc(-c4ccccc4OC(F)(F)F)cc(C(F)(F)F)c3[nH]2)nc1C(C)(C)C [Compound 195, 2-(4-tert-Butyl-5-methyl-oxazol-2-yl)-5-(2-trifluoromethoxy-phenyl)-7-trifluoromethyl-1H-benzimidazole hydrochloride] |
